# Test results from patent US12459974B2, “Bicyclic peptide ligands specific for Nectin-4” (priority 2018, dated 2025).
# Like-named read-outs stand apart in the source and are kept apart here. *1 amine or outer side, *2 acyl side, *3 side chain or, on linkers, in order; H or OH if unused. Where a SMILES comes first, the peptide text is derived from it. Bridges are numbered along the chain shown (N, C = ends). TATA = O=C(CC[*:1])N1CN(C(=O)CC[*:2])CN(C(=O)CC[*:3])C1
# Biological target: T1, human Nectin-4 (Homo sapiens, UniProt Q96NY8)
# T1 sequence (Q96NY8 32-510): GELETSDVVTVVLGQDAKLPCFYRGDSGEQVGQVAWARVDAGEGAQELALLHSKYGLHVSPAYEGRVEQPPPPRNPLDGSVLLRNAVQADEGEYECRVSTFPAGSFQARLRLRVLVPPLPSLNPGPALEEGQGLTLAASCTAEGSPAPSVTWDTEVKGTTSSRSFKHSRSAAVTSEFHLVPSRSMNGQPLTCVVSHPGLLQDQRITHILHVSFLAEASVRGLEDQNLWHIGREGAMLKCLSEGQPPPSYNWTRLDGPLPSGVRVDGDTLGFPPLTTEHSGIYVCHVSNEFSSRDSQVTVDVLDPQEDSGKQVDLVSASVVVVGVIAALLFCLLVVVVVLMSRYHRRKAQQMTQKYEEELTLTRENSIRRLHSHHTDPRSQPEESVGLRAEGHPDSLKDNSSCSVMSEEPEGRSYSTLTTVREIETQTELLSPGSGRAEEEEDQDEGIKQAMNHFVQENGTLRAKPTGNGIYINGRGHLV
# Assay: Nectin-4 competition binding assay (fluorescence polarisation)
# Protocol: Peptides were diluted to an appropriate concentration in assay buffer as described in the direct binding assay with a maximum of 5% DMSO, then serially diluted 1 in 2. Five μL of diluted peptide was added to the plate followed by 10 μL of human Nectin-4, then 10 μL fluorescent peptide added. Measurements were conducted as for the direct binding assay, however the gain was determined prior to the first measurement. Data analysis was in Systat Sigmaplot version 12.0 where the mP values were fit to a user defined cubic equation to generate a Ki value: • f=ymin+(ymax−ymin)/Lig*((Lig*((2*((Klig+Kcomp+Lig+Comp-Prot*c)^2-3*(Kcomp*(Lig-Prot*c)+Klig*(Comp-Prot*c)+Klig*Kcomp))^0.5*COS(ARCCOS((−2*(Klig+Kcomp+Lig+Comp-Prot*c)^3+9*(Klig+Kcomp+Lig+Comp-Prot*c)*(Kcomp*(Lig-Prot*c)+Klig*(Comp-Prot*c)+Klig*Kcomp)−27*(−1*Klig*Kcomp*Prot*c)/(2*((((Klig+Kcomp+Lig+Comp-Prot*c)^2−3*(Kcomp*(Lig-Prot*c)+Klig*(Comp-Prot*c)+Klig*Kcomp))^3)^0.5)))/3))−(Klig+Kcomp+Lig+Comp-Prot*c)))/((3*Klig)+((2*((Klig+Kcomp+Lig+Comp-Prot*c)^2−3*(Kcomp*(Lig-Prot*c)+Klig*(Comp-Prot*c)+Klig*Kcomp))^0.5*COS (ARCCOS ((−2*(Klig+Kcomp+Lig+Comp-Prot*c)^3+9*(Klig+Kcomp+Lig+Comp-Prot*c)*(Kcomp*(Lig-Prot*c)+Klig*(Comp-Prot*c)+Klig*Kcomp)-27*(−1*Klig*Kcomp*Prot*c))/(2*((((Klig+Kcomp+Lig+Comp-Prot*c)^2-3*(Kcomp*(Lig-Prot*c)+Klig*(Comp-Prot+c)+Klig*Kcomp))^3)^0.5))/3)−(Klig+Kcomp+Lig+Comp-Prot*c)))).
# “Lig”, “KLig” and “Prot” were all defined values relating to: fluorescent peptide concentration, the Kd of the fluorescent peptide and Nectin concentration respectively.
# [1] = competition with fluorescent peptide SEQ ID NO: 217, read-out: Ki
SMILES,Ki [1],Ki
"CC[C@H](C)[C@@H]1NC(=O)[C@@H]2CCCN2C(=O)[C@H](Cc2c[nH]c3ccccc23)NC(=O)[C@H](CO)NC(=O)[C@H](Cc2c[nH]c3ccccc23)NC(=O)[C@H](CO)NC(=O)[C@H](CCCCN)NC(=O)[C@H](CCSC)NC(=O)[C@@H]2CSCCC(=O)N3CN(CN(C3)C(=O)CCSC[C@H](NC(=O)[C@H](CO)NC(=O)[C@H](CC(=O)O)NC(=O)[C@@H](N)Cc3c[nH]cn3)C(=O)N3CCC[C@H]3C(=O)N[C@@H](Cc3ccccc3)C(=O)NCC(=O)N2)C(=O)CCSC[C@@H](C(=O)N[C@@H](C)C(N)=O)NC(=O)[C@H](Cc2c[nH]c3ccccc23)NC1=O [BCY3393, HDS-(SEQ ID NO: 51)-A] (H-HDSCPFGCMKSWSWPIWCA-NH2; linker 4-8-18 via TATA)",173 nM,–
"CC[C@H](C)[C@@H]1NC(=O)[C@@H]2CCCN2C(=O)[C@H](Cc2c[nH]c3ccccc23)NC(=O)[C@H](CO)NC(=O)[C@H](Cc2c[nH]c3ccccc23)NC(=O)[C@H]([C@@H](C)O)NC(=O)[C@H](CCCCN)NC(=O)[C@H](CCSC)NC(=O)[C@@H]2CSCCC(=O)N3CN(CN(C3)C(=O)CCSC[C@H](NC(=O)[C@H](C)N)C(=O)N3CCC[C@H]3C(=O)N[C@@H](Cc3ccccc3)C(=O)NCC(=O)N2)C(=O)CCSC[C@@H](C(=O)N[C@H](C(=O)N[C@@H](CC(=O)O)C(=O)N[C@@H](CCCCN)C(N)=O)[C@@H](C)O)NC(=O)[C@H](Cc2c[nH]c3ccccc23)NC1=O [BCY3394, A-(SEQ ID NO: 52)-TDK] (H-ACPFGCMKTWSWPIWCTDK-NH2; linker 2-6-16 via TATA; N-terminus and C-terminus assumed)",102 nM,–
"CC[C@H](C)[C@@H]1NC(=O)[C@@H]2CCCN2C(=O)[C@H](Cc2c[nH]c3ccccc23)NC(=O)[C@H](CO)NC(=O)[C@H](Cc2c[nH]c3ccccc23)NC(=O)CNC(=O)[C@H](CCCCN)NC(=O)[C@H](CCSC)NC(=O)[C@@H]2CSCCC(=O)N3CN(CN(C3)C(=O)CCSC[C@H](NC(=O)[C@H](C)N)C(=O)N3CCC[C@H]3C(=O)N[C@@H](Cc3ccccc3)C(=O)NCC(=O)N2)C(=O)CCSC[C@@H](C(=O)N[C@@H](CC(C)C)C(=O)N[C@@H](CCCCN)C(=O)N[C@@H](CC(=O)O)C(N)=O)NC(=O)[C@H](Cc2c[nH]c3ccccc23)NC1=O [BCY3395, A-(SEQ ID NO: 53)-LKD] (H-ACPFGCMKGWSWPIWCLKD-NH2; linker 2-6-16 via TATA; N-terminus and C-terminus assumed)",17.4 nM,–
"CC[C@H](C)[C@@H]1NC(=O)[C@@H]2CCCN2C(=O)[C@H](Cc2c[nH]c3ccccc23)NC(=O)[C@H](CO)NC(=O)[C@H](Cc2c[nH]c3ccccc23)NC(=O)[C@H](Cc2c[nH]cn2)NC(=O)[C@H](CCC(=O)O)NC(=O)[C@H](CCC(N)=O)NC(=O)[C@@H]2CSCCC(=O)N3CN(CN(C3)C(=O)CCSC[C@H](NC(=O)[C@H](C)N)C(=O)N3CCC[C@H]3C(=O)N[C@@H](Cc3ccccc3)C(=O)NCC(=O)N2)C(=O)CCSC[C@@H](C(=O)N[C@H](C(=O)N[C@H](C(=O)N[C@@H](C)C(N)=O)[C@@H](C)O)[C@@H](C)O)NC(=O)[C@H](Cc2c[nH]c3ccccc23)NC1=O [BCY3396, A-(SEQ ID NO: 54)-TTA] (H-ACPFGCQEHWSWPIWCTTA-NH2; linker 2-6-16 via TATA; N-terminus and C-terminus assumed)",102 nM,–
"CC[C@H](C)[C@@H]1NC(=O)[C@@H]2CSCCC(=O)N3CN(CN(C3)C(=O)CCSC[C@H](NC(=O)[C@H](C)N)C(=O)N3CCC[C@H]3C(=O)N[C@@H](Cc3ccccc3)C(=O)NCC(=O)N2)C(=O)CCSC[C@@H](C(=O)N[C@@H](CCC(N)=O)C(=O)N[C@@H](CCSC)C(=O)N[C@@H](CCC(=O)O)C(N)=O)NC(=O)[C@H](Cc2c[nH]c3ccccc23)NC(=O)[C@H]([C@@H](C)CC)NC(=O)[C@@H]2CCCN2C(=O)[C@H](Cc2c[nH]c3ccccc23)NC(=O)[C@H](CO)NC(=O)[C@H](Cc2c[nH]c3ccccc23)NC(=O)[C@H](CO)NC(=O)[C@H](CCCCN)NC1=O [BCY3397, A-(SEQ ID NO: 55)-QME] (H-ACPFGCIKSWSWPIWCQME-NH2; linker 2-6-16 via TATA; N-terminus and C-terminus assumed)",33.2 nM,–
"CC[C@H](C)[C@@H]1NC(=O)[C@@H]2CCCN2C(=O)[C@H](Cc2c[nH]c3ccccc23)NC(=O)[C@H](CO)NC(=O)[C@H](Cc2c[nH]c3ccccc23)NC(=O)[C@H](CC(=O)O)NC(=O)[C@H](CCC(=O)O)NC(=O)[C@H](CCC(N)=O)NC(=O)[C@@H]2CSCCC(=O)N3CN(CN(C3)C(=O)CCSC[C@H](NC(=O)[C@H](C)N)C(=O)N3CCC[C@H]3C(=O)N[C@@H](Cc3ccccc3)C(=O)NCC(=O)N2)C(=O)CCSC[C@@H](C(=O)N[C@@H](CC(C)C)C(=O)N[C@@H](CO)C(=O)N[C@@H](CCC(=O)O)C(N)=O)NC(=O)[C@H](Cc2c[nH]c3ccccc23)NC1=O [BCY3398, A-(SEQ ID NO: 56)-LSE] (H-ACPFGCQEDWSWPIWCLSE-NH2; linker 2-6-16 via TATA; N-terminus and C-terminus assumed)",164 nM,–
"CC[C@H](C)[C@@H]1NC(=O)[C@@H]2CCCN2C(=O)[C@H](Cc2c[nH]c3ccccc23)NC(=O)[C@H](CO)NC(=O)[C@H](Cc2c[nH]c3ccccc23)NC(=O)[C@H](CC(=O)O)NC(=O)[C@H](CO)NC(=O)[C@H](CCSC)NC(=O)[C@@H]2CSCCC(=O)N3CN(CN(C3)C(=O)CCSC[C@H](NC(=O)[C@H](C)N)C(=O)N3CCC[C@H]3C(=O)N[C@@H](Cc3ccccc3)C(=O)NCC(=O)N2)C(=O)CCSC[C@@H](C(=O)N[C@@H](CO)C(=O)N[C@H](C(=O)N[C@@H](CC(=O)O)C(N)=O)[C@@H](C)O)NC(=O)[C@H](Cc2c[nH]c3ccccc23)NC1=O [BCY3399, A-(SEQ ID NO: 57)-STD] (H-ACPFGCMSDWSWPIWCSTD-NH2; linker 2-6-16 via TATA; N-terminus and C-terminus assumed)",410 nM,–
"CC[C@H](C)[C@@H]1NC(=O)[C@H](CCCNC(=N)N)NC(=O)[C@@H]2CCCN2C(=O)[C@@H]2CSCCC(=O)N3CN(CN(C3)C(=O)CCSC[C@@H](C(=O)N3CCC[C@H]3C(=O)N[C@@H](CCC(N)=O)C(=O)N[C@@H](C)C(N)=O)NC1=O)C(=O)CCSC[C@H](NC(=O)[C@H](C)N)C(=O)N[C@@H](Cc1c[nH]c3ccccc13)C(=O)N1CCC[C@H]1C(=O)N[C@@H](CC(C)C)C(=O)N[C@@H](CC(=O)O)C(=O)N[C@@H](CC(=O)O)C(=O)N[C@@H](Cc1ccc(O)cc1)C(=O)N[C@@H](Cc1c[nH]c3ccccc13)C(=O)N2 [BCY3401, A-(SEQ ID NO: 58)-PQA] (H-ACWPLDDYWCPRICPQA-NH2; linker 2-10-14 via TATA; N-terminus and C-terminus assumed)",154 nM,–
"CC[C@H](C)[C@@H]1NC(=O)[C@@H]2CCCN2C(=O)[C@H](Cc2c[nH]c3ccccc23)NC(=O)[C@H](CO)NC(=O)[C@H](Cc2c[nH]c3ccccc23)NC(=O)[C@H](CC(N)=O)NC(=O)[C@H](CCCCN)NC(=O)[C@H](CCSC)NC(=O)[C@@H]2CSCCC(=O)N3CN(CN(C3)C(=O)CCSC[C@H](NC(=O)[C@H](C)N)C(=O)N3CCC[C@H]3C(=O)N[C@@H](Cc3ccccc3)C(=O)NCC(=O)N2)C(=O)CCSC[C@@H](C(=O)N[C@H](C(=O)N[C@@H](CC(N)=O)C(=O)N[C@@H](C)C(N)=O)[C@@H](C)O)NC(=O)[C@H](Cc2c[nH]c3ccccc23)NC1=O [BCY7348, A-(SEQ ID NO: 1)-TNA]",20.6 nM,–
"CC[C@H](C)[C@@H]1NC(=O)[C@@H]2CCCN2C(=O)[C@H](Cc2c[nH]c3ccccc23)NC(=O)[C@H](CO)NC(=O)[C@H](Cc2c[nH]c3ccccc23)NC(=O)[C@H](CC(N)=O)NC(=O)[C@H](CCCCN)NC(=O)[C@H](CCSC)NC(=O)[C@@H]2CSCCC(=O)N3CN(CN(C3)C(=O)CCSC[C@H](NC(=O)[C@H](C)N)C(=O)N3CCC[C@H]3C(=O)N[C@@H](Cc3ccccc3)C(=O)N[C@@H](C)C(=O)N2)C(=O)CCSC[C@@H](C(=O)N[C@H](C(=O)N[C@@H](CC(N)=O)C(=O)N[C@@H](CCCCN)C(N)=O)[C@@H](C)O)NC(=O)[C@H](Cc2c[nH]c3ccccc23)NC1=O [BCY7354, A-(SEQ ID NO: 6)-TNK]",–,884 nM
